The source of these data is PMC12057046, “Elucidation of short linear motif-based interactions of the MIT and rhodanese domains of the ubiquitin-specific protease 8” (Biology Direct, 2025).

The subject of the first assay is USP8 MIT domain. The assay can be described thus: Peptide-phage display-based deep mutational scanning (DMS), USP8 MIT domain. The class given is binding, human. The settings on record: bait USP8_MIT__P40818_1_142; EFCAB12 (Q6NXP0) 2-17; pair of mutant with wild-type wt_00016 (MDDDYEAYHSLFLSLL); sheet S3.B_ProP-PD_pairs. The method, then: The residues of these 16 amino acid-long wild-type peptides were substituted to all natural amino acid residues, except cysteine, in all positions (Supplementary Table S2A). The designed peptide sequences were reverse-translated to oligonucleotides optimized to the codon usage of E. coli. The required flanking regions (5´[…] and 3´[…]) were added for library construction. The library was generated as previously described.
Four rounds of phage selections were carried out using the second generation human disorderome library or the constructed deep mutational scanning library. At least three individual replicates were used for each bait protein. 10 µg of GST-tagged proteins or GST control (diluted in PBS from the stock of proteins kept in the purification elution buffer) were immobilized in 100 µL PBS on a 96-well MaxiSorp (Nunc) plate overnight at 4 °C. The plates were incubated with blocking buffer (with 0.5% BSA in PBS) for 1 h at 4 °C followed by washing with 0.05% Tween 20 in PBS four times. The naïve phage library (10^11 CFU) was diluted in 1/5th volume PEG/NaCl (20% PEG-8000, 0.4 M NaCl) and 1X PBS, incubated on ice for 10 min and centrifuged at 10,000 [drawing 3] g for 10 min. The pellet was resuspended in the volume of PBS (100 µL/ well). The GST-coated control plate was incubated with 100 µL library per well in PBS for 1 h at 4 °C to remove non-specific binders. The supernatant was transferred to the target wells and incubated for 2 h at 4 °C. The wells were washed five times with 0.05% Tween 20 in PBS and the bound phages were eluted with 100 µL per well log-phase E. coli OmniMAX by incubating at 37° C while shaking. After 30 min, M13KO7 helper phages were added and incubated for an additional 45 min. The bacterial cultures were transferred to 1 mL 2YT supplemented with 100 µg/mL carbenicillin, 30 µg/mL kanamycin and 0.3 mM IPTG and grew overnight at 37 °C while shaking. The following day the cultures were centrifuged for 10 min at 2,000 [drawing 4] g, 4 °C. 1/10th volume of 10 [drawing 5] PBS was added to adjust the pH and heated at 65 °C for 10 min. The phage pools from each round were used as in-phages for the next round of selections.
The samples were prepared for NGS as previously described. Peptide-coding regions of the enriched phage pools were amplified and barcoded using Phusion High-Fidelity PCR Master Mix (Thermo Fisher) for 22 cycles and confirmed by 2% agarose gel electrophoresis. The PCR products were normalized with 25 µL Mag-bind Total Pure NGS beads (Omega Biotek) and 10 µL of each eluted sample (Qiagen Elution Buffer) was pooled and cleaned-up with a PCR purification kit (Qiagen). The PCR product was confirmed by 2% agarose electrophoresis and the band was extracted with QIAquick Gel extraction Kit (Qiagen) and eluted with 30 µL TE buffer. The dsDNA was quantified using QuantiT PicoGreen dsDNA Assay Kit (Thermo Fisher) and sent for NGS (Illumina MiSeq v3, 1 × 150 bp read setup, 20% PhiX, NGI SciLifeLab facility, Sweden). The NGS data were demultiplexed, adapter regions were trimmed and sequences with an average quality of at least 20 were translated to peptide sequences. The NGS data were analysed using custom Python scripts. The total read NGS counts for each selection experiment of each peptide sequence were compiled and annotated in PepTools (https://slim.icr.ac.uk/tools/peptools/). Since ProP-PD is in essence a competition assay, the possibility of the input phage library influencing the selection outcome was explored. For this, the Pearson correlation coefficient, p-value and coefficient of determination were calculated for all peptide NGS count fractions in the library coverage vs. in the selections results (Supplementary Fig. S7; Supplementary Table S2B; Supplementary Table S3B; Supplementary Table S7B). Pearson correlation coefficient and p-value were calculated using Python’s SciPy library. […]
The sequence MDDDYEQYHSLFLSLL [mut_04440] came in with a hit_pair_ratio of 112.94.

Take MDDDYERYHSLFLSLL [mut_04441]: the hit_pair_ratio is recorded as 84.82.

As for MDDDYESYHSLFLSLL [mut_04442], the hit_pair_ratio was determined as 37.68.

As to MDDDYETYHSLFLSLL [mut_04443], the hit_pair_ratio came to 112.94.

Regarding MDDDYEVYHSLFLSLL [mut_04444], the hit_pair_ratio was 28.27.

The sequence MDDDYFAYHSLFLSLL [mut_04413] displayed a hit_pair_ratio of 168.96.

Take MDDDYGAYHSLFLSLL [mut_04414]: the hit_pair_ratio is on record as 33.85.

With MDDDYHAYHSLFLSLL [mut_04415], the hit_pair_ratio came out at 84.48.

With MDDDYIAYHSLFLSLL [mut_04416], the hit_pair_ratio is on record as 56.54.

As for MDDDYLAYHSLFLSLL [mut_04418], the hit_pair_ratio amounted to 84.82.

For MDDDYMAYHSLFLSLL [mut_04419], the hit_pair_ratio was found to be 112.64.

On to MDDDYNAYHSLFLSLL [mut_04420], for which the hit_pair_ratio is given as 2.54.

As for MDDDYPAYHSLFLSLL [mut_04421], the hit_pair_ratio was determined as 1.34.

MDDDYQAYHSLFLSLL [mut_04422]: the hit_pair_ratio is 12.11.

MDDDYSAYHSLFLSLL [mut_04424] registered a hit_pair_ratio of 84.48.

In turn, MDDDYTAYHSLFLSLL [mut_04425] had a hit_pair_ratio of 48.27.

Sequence MDDDYVAYHSLFLSLL [mut_04426] showed a hit_pair_ratio of 112.64.

MDDDYWAYHSLFLSLL [mut_04427] came in with a hit_pair_ratio of 2.20.

In turn, MDDDYYAYHSLFLSLL [mut_04428] showed a hit_pair_ratio of 1.20.

In the case of MDDEYEAYHSLFLSLL [mut_04376], the hit_pair_ratio is listed as 3.28.

The sequence MDDFYEAYHSLFLSLL [mut_04377] displayed a hit_pair_ratio of 337.92.

MDDGYEAYHSLFLSLL [mut_04378] showed a hit_pair_ratio of 3.46.

As to MDDHYEAYHSLFLSLL [mut_04379], the hit_pair_ratio was determined as 28.27.

As for MDDKYEAYHSLFLSLL [mut_04381], the hit_pair_ratio is listed as 84.82.

With MDDLYEAYHSLFLSLL [mut_04382], the hit_pair_ratio is 337.92.

Sequence MDDNYEAYHSLFLSLL [mut_04384] came in with a hit_pair_ratio of 33.79.

In the case of MDDPYEAYHSLFLSLL [mut_04385], the hit_pair_ratio came to 4.13.

Sequence MDDQYEAYHSLFLSLL [mut_04386] returned a hit_pair_ratio of 42.28.

Consider MDDRYEAYHSLFLSLL [mut_04387], for which the hit_pair_ratio was 84.48.

The sequence MDDSYEAYHSLFLSLL [mut_04388] returned a hit_pair_ratio of 4.76.

MDDTYEAYHSLFLSLL [mut_04389] came in with a hit_pair_ratio of 15.92.

Sequence MDDWYEAYHSLFLSLL [mut_04391] came in with a hit_pair_ratio of 51.65.

Take MDDYYEAYHSLFLSLL [mut_04392]: the hit_pair_ratio was 56.39.

As to MDEDYEAYHSLFLSLL [mut_04358], the hit_pair_ratio amounted to 3.08.

Take MDFDYEAYHSLFLSLL [mut_04359]: the hit_pair_ratio was 112.94.

Regarding MDGDYEAYHSLFLSLL [mut_04360], the hit_pair_ratio was 5.59.

As to MDHDYEAYHSLFLSLL [mut_04361], the hit_pair_ratio is given as 6.06.

MDIDYEAYHSLFLSLL [mut_04362] gave a hit_pair_ratio of 337.92.

MDLDYEAYHSLFLSLL [mut_04364] had a hit_pair_ratio of 2.51.

Consider MDMDYEAYHSLFLSLL [mut_04365], for which the hit_pair_ratio came out at 84.82.

Regarding MDNDYEAYHSLFLSLL [mut_04366], the hit_pair_ratio turned out to be 19.88.

In the case of MDPDYEAYHSLFLSLL [mut_04367], the hit_pair_ratio was found to be 337.92.

In the case of MDQDYEAYHSLFLSLL [mut_04368], the hit_pair_ratio is given as 8.05.

In the case of MDSDYEAYHSLFLSLL [mut_04370], the hit_pair_ratio stood at 42.24.

MDTDYEAYHSLFLSLL [mut_04371] displayed a hit_pair_ratio of 112.94.

MDVDYEAYHSLFLSLL [mut_04372]: the hit_pair_ratio worked out at 7.68.

Sequence MDWDYEAYHSLFLSLL [mut_04373] yielded a hit_pair_ratio of 2.57.

MDYDYEAYHSLFLSLL [mut_04374] registered a hit_pair_ratio of 42.41.

Take MEDDYEAYHSLFLSLL [mut_04340]: the hit_pair_ratio came to 16.11.

In turn, MFDDYEAYHSLFLSLL [mut_04341] yielded a hit_pair_ratio of 4.97.

On to MGDDYEAYHSLFLSLL [mut_04342], for which the hit_pair_ratio was 337.92.

In turn, MHDDYEAYHSLFLSLL [mut_04343] gave a hit_pair_ratio of 337.92.

For MIDDYEAYHSLFLSLL [mut_04344], the hit_pair_ratio is reported as 337.92.

The sequence MKDDYEAYHSLFLSLL [mut_04345] had a hit_pair_ratio of 25.99.

Sequence MLDDYEAYHSLFLSLL [mut_04346] registered a hit_pair_ratio of 33.93.

The sequence MMDDYEAYHSLFLSLL [mut_04347] gave a hit_pair_ratio of 37.58.

In the case of MNDDYEAYHSLFLSLL [mut_04348], the hit_pair_ratio is 14.75.

Sequence MPDDYEAYHSLFLSLL [mut_04349] registered a hit_pair_ratio of 168.96.

For the sequence MQDDYEAYHSLFLSLL [mut_04350], the hit_pair_ratio amounted to 169.63.

Sequence MRDDYEAYHSLFLSLL [mut_04351] yielded a hit_pair_ratio of 4.58.

Take MSDDYEAYHSLFLSLL [mut_04352]: the hit_pair_ratio was determined as 67.69.

Turning to MVDDYEAYHSLFLSLL [mut_04354], the hit_pair_ratio is 6.06.

In the case of MYDDYEAYHSLFLSLL [mut_04356], the hit_pair_ratio was found to be 67.58.

Consider NDDDYEAYHSLFLSLL [mut_04330], for which the hit_pair_ratio is recorded as 17.85.

As for PDDDYEAYHSLFLSLL [mut_04331], the hit_pair_ratio was determined as 10.25.

In the case of QDDDYEAYHSLFLSLL [mut_04332], the hit_pair_ratio was found to be 3.38.

Sequence SDDDYEAYHSLFLSLL [mut_04334] showed a hit_pair_ratio of 56.39.

The same assay, now with this note: bait USP8_MIT__P40818_1_142; MLPH 482-497; ratio of averaged fractions of wild-type/mutant peptide pair, larger over smaller (direction to be read from the two fractions).
Take SEVADIESRIAALRAA: the hit_pair_ratio is on record as 7.79.

As to SEVEDIESRIAALRAA, the hit_pair_ratio was found to be 7.79.

With SEVFDIESRIAALRAA, the hit_pair_ratio amounted to 1.56.

Still in this assay, the particulars now being: sheet S3.B_ProP-PD_pairs; bait USP8_MIT__P40818_1_142; ratio within the wild-type/mutant pair, larger over smaller averaged fraction (direction from fraction_wt and fraction_mut).
Consider MDDDYEWYHSLFLSLL, for which the hit_pair_ratio was 1.12.

Turning to MDDDYEYYHSLFLSLL, the hit_pair_ratio was determined as 2.04.

Consider MEVSDIESRIAALRAA, for which the hit_pair_ratio was 2.60.

With NEVSDIESRIAALRAA, the hit_pair_ratio came out at 11.09.

Turning to PEVSDIESRIAALRAA, the hit_pair_ratio came to 7.79.

QEVSDIESRIAALRAA: the hit_pair_ratio amounted to 2.44.

As for SDVSDIESRIAALRAA, the hit_pair_ratio is 11.31.

With SEASDIESRIAALRAA, the hit_pair_ratio was found to be 1.11.

SEESDIESRIAALRAA: the hit_pair_ratio is listed as 7.79.

With SEFSDIESRIAALRAA, the hit_pair_ratio came out at 1.28.

For the sequence SEGSDIESRIAALRAA, the hit_pair_ratio turned out to be 7.79.

Take SEISDIESRIAALRAA: the hit_pair_ratio is listed as 2.51.

As to SELSDIESRIAALRAA, the hit_pair_ratio turned out to be 11.85.

Take SEPSDIESRIAALRAA: the hit_pair_ratio worked out at 2.03.

As for SEQSDIESRIAALRAA, the hit_pair_ratio is reported as 5.24.

SESSDIESRIAALRAA: the hit_pair_ratio is recorded as 3.89.

For SETSDIESRIAALRAA, the hit_pair_ratio stood at 1.00.
